These results are taken from patent US20110028554A1, “PHARMACEUTICAL COMPOSITIONS COMPRISING DIIODOTHYRONINE AND THEIR THERAPEUTIC USE” (UNIVERSITE JOSEPH FOURIER, priority 2007, published 2011).

A short description of assay [1]: Body weight and food intake of Zucker rats. The settings on record: Zucker (Fa/Fa) rats, 30 days, FIG. 8 legend high dosage 25 μg/100 g BW. The format is in vivo. The protocol:
Adult male rat bred in the animal room facilities of Laboratory of Fundamental and Applied. Bioenergetics (Wistar strain) or purchased from Charles-River Laboratories, Domaine des oncins, L'ARBRESLE France [(genetically obese normoglycemic (Zucker or Fa/Fa) or diabetic (ZDF)] were caged individually in stainless steel hanging cages and maintained in a 22° C., 50±10% relative humidity and 12 h:12 h light:dark environment. All animals were fed ad libitum with a standard rat chow (Safe A04, Villemoisson, France) and tap water. Body mass and food intake were recorded twice/thrice a week and fresh food was provided, at the same time to ensure minimal disturbance to the animals' food, behavior.
Eight-week old rats (300 g±10 g) were anesthetized by simultaneous intraperitoneal injection of diazepam 4 mg/kg and ketamine 100 mg/kg. In order to maintain body temperature during the surgery (10 min), animals were placed on a warm blanket. After interscapular shaving, a small incision of 0.5 cm of the skin allows the subcutaneous implantation of a small pellet (containing rT3 or 3′,3-T2) with a 10-gauge precision trochar. The pellets, manufactured by Innovative Research of America (Sarasota, Fla., USA) are constituted of a biodegradable matrix that effectively and continuously release the active product in the animal. […]

The test system of the next assay is muscle mitochondria. In words: Muscle mitochondrial oxygen consumption (JO2) of treated Wistar rats. In kind it is in vivo. The method, then: All measurements were performed using mitochondria (0.2 mg mitochondrial protein/ml) incubated with various substrates: • GM: glutamate/malate (5 mM/2.5 mM) • SR: succinate/rotenone (5 mM/5 μM), • GMS: glutamate/malate/succinate (5 mM/2.5 mM/5 mM), • Palm: palmitoyl carnitine (55 μM), • Octa: octanoyl carnitine (100 μM), • TMPD/AsC: TMPD/ascorbate (0.5 mM/0.5 mM), and • TMPD/AsC/DNP: TMPD/ascorbate/DNP (0.5 mM/0.5 mM/75 μM).
JO2 was recorded in the presence of the substrate and following the addition of 1 mM ADP (state 3).
The oligomycin was added to the mitochondrial suspension to determine the non-phosphorylating respiratory rate (state 4).
The major part of the liver and the red part of each quadriceps were rinsed, and chopped into isolation medium (250 mM sucrose, 20 mM Tris-HCl and 1 mM EGTA-Tris, pH 7.4). Nuclei and cell debris were removed, by centrifugation at 800 g for 10 min. Mitochondria were then isolated from the supernatant by spinning twice at 8,000 g for 10 minutes. The mitochondrial pellet was resuspended in 0.5 ml of isolation buffer and kept on ice. Mitochondrial protein was measured by the bicinchoninic acid method (Pierce, Rockford, Ill.). The final mitochondrial suspensions were maintained on ice and were used for measurements of oxygen consumption rate and reactive oxygen species (ROS) production.
The rate of mitochondrial oxygen consumption (JO2) was measured at 30° C. in an incubation chamber with a Clark-type O2 electrode filled with 2 ml of incubation medium (125 mM KCl, 10 mM Pi-Tris, 20 mM Tris-HCl, 0.1 mM EGTA, pH 7.2). All measurements were performed using mitochondria (1.0 or 0.2 mg mitochondrial protein/ml for liver and skeletal muscle) incubated either with various substrates: glutamate/malate (5 mM/2.5 mM) and succinate (5 mM), alone or in combination, palmitoyl carnitine (55 μM) and octanoyl carnitine (100 μM). For each substrate, JO2 was recorded in the presence of the substrate alone (State 2) and following the addition of 1 mM ADP (state 3). Oligomycin (1.25 μg/mg protein) was added to the mitochondrial suspension to determine the non-phosphorylating respiratory rate (state 4). The incubation medium was constantly stirred with a built-in electromagnetic stirrer and bar flea. The efficiency of the mitochondrial oxidative phosphorylation was assessed by the state 3/state 4 ratio which measures the degree of control imposed on oxidation by phosphorylation (respiratory control ratio, RCR).

The nature of assay [2]: Plasmatic concentrations of glucose, triglycerides, cholesterol, FFA and HDL on the day of sacrifice. In kind it is in vivo, Wistar, Zucker and ZDF rats. The text has this: These measurements were done on venous blood of the rats the day of the sacrifice.
At the end of the experimental period, animals were sacrificed by decapitation, in order to avoid the well-known effects of general anesthetics on mitochondrial metabolism. Blood, samples were immediately collected and plasma was frozen for subsequent determination of serum metabolites and hormones. Liver, muscles and fat depots were quickly excised and weighed. Liver median lobe was rapidly freeze-clamped. Muscles (plantaris, soleus and gastrocnemius) were frozen in isopentane precooled in liquid nitrogen. Mesenteric fat consisted, of adipose tissue surrounding the gastro-intestinal tract from the gastro-oesophageal sphincter to the end of the rectum with special care taken in distinguishing and removing the pancreas. Retroperitoneal fat pad was taken as the distinct depot behind each kidney along the lumbar muscles. Epididymal fat consisted, of adipose tissue on top of the epididymis. For subcutaneous depot measurement, a rectangular piece of skin was taken on the right side of each animal from the median line of the abdomen between the spine and the right hip to the first rib. Interscapular brown adipose tissue was removed and dissected free from adjacent muscles and white adipose tissue. The heart ventricles, the right kidney and the spleen were also excised, weighed and frozen.
Glucose and 3-hydroxybutyrate (3-HB) were measured, enzymatically and non esterified fatty acid (NEFA) by colorimetric assay (Wako Chemicals).
Triglycerides and cholesterol were measured by classical routine automate apparatus.

The conditions of assay [3]: normal rats, high-fat diet, daily peritoneal injection; cited from earlier work.

The structures appear in SMILES notation.

On to `N[C@@H](Cc1cc(I)c(Oc2ccc(O)cc2)c(I)c1)C(=O)O` [3,5-T2, 3,5-diiodothyronine], for which the “Food intake vs placebo” value in assay [1] is “significantly lower as compared to placebo”. Moreover, the “Animal growth (body weight) vs placebo” value in assay [1] (text says low 3,5-T2 group) is on record as “no significant growth”. In the assay on muscle mitochondria (high dosage 25 μg/100 g BW), the “Muscle mitochondrial respiration, non-phosphorylating (state 4), vs placebo” value is “failed to substantially affect” and the “Muscle mitochondrial respiration, phosphorylating (state 3), vs placebo” value is reported as “failed to substantially affect”. Besides, in the assay with muscle mitochondria (low dosage 2.5 μg/100 g BW), the “Muscle mitochondrial respiration, non-phosphorylating (state 4), vs placebo” value is “failed to substantially affect” and the “Muscle mitochondrial respiration, phosphorylating (state 3), vs placebo” value is reported as “failed to substantially affect”. Besides, the “Plasmatic glucose at the end of the treatment” value in assay [2] (non-diabetic Wistar rats, low dosage 2.5 μg/100 g BW) is reported as “minor changes”. The “Plasmatic glucose at the end of the treatment” value in assay [2] (non-diabetic Zucker rats, 25 μg/100 g BW) is given as “minor changes”. Besides, in assay [3], the “Fat deposit vs untreated rats” value is reported as “less fat deposit” and the “Weight gain vs untreated rats” value is given as “gained less weight”.
